Reference: patent US12569536B2, “Macrocyclic peptides for targeted inhibition of autophagy” (Board of Regents, The University of Texas System, priority 2019, dated 2026)
Entries after “also recorded” stand apart in the source; their conditions may differ. Read-outs that look alike come from different tables or passages of the source. One block for each compound: values may come before it. Numbered stars: 1 amine (or outer) side, 2 acyl side, 3 side chain; on linkers, the order of the positions; unused ones are H or OH. Bridge positions count the residues as written; N and C are the ends. Square brackets hold non-standard residues; d marks the D form. Ends that are not written are not given here. Peptide text beside a SMILES is read from it. Glutaryl = O=C(CCCC(=O)[*:2])[*:1]; NMeA = CN[C@@H](C)C(=O)O

What was measured:
OVCAR8 cells = details: 50 μM peptide; for cell viability (MTT), DIRAS3-induced (autophagic) cells: OVCAR8, Dox-induced, 72 hours; for cell viability (MTT), non-DIRAS3 induced cells: OVCAR8, no Dox (non-autophagic), up to 72 hours
Protocol: (§1) FIGS. 6A-D: SUPR4B in the DIRAS3 autophagy model. FIGS. 6A&B—MTT viability assays with 50 M linear and cyclic SUPR 4B on non-DIRAS3 induced OVCAR8 (FIG. 6B) and SKOv3 (FIG. 6A) cells. […] Induction was performed using 1 g/mL DOX.
(§2) FIGS. 8A-F: SUPR4B in the DIRAS3 autophagy model. […] Inhibition of autophagy by the present compound were hypothesized to restore cellular growth. […] FIGS. 8A&B—MTT viability assays with 50 M linear and cyclic SUPR on non-DIRAS3 induced OVCAR8 (FIG. 8A) and SKOv3 (FIG. 8B) cells. […] FIGS. 8C&D—MTT viability assays on the effect of 50 M linear and cyclic LC3 SUPR4B on DIRAS3-induced OVCAR8 (FIG. 8C) and SKOv3 (FIG. 8D) cells. Induction was performed using 1 g/mL DOX.
(§3) After selection, the library was sequenced and lead compounds were subjected to thermodynamic and cellular assays to develop a structure-activity relationship modeling the interaction between the SUPR peptide and the target.

SKOv3 cells = test: MTT viability assay in DIRAS3 autophagy model; details: 50 μM peptide; for cell viability (MTT), DIRAS3-induced (autophagic) cells: SKOv3, Dox-induced, 72 hours; for cell viability (MTT), non-DIRAS3 induced cells: SKOv3, no Dox (non-autophagic), up to 72 hours
Protocol: as §1, §2, §3

LC3A [1] = target: T1, LC3A (Homo sapiens, UniProt Q9H492); test: Binding of radiolabeled individual peptide fusions to immobilized LC3A; details: for Binding analysis of clones on immobilized LC3 (FIG. 3E): radiolabeled peptide fusions
T1 construct: made in house
Protocol: A randomized 8-mer peptide library (with a diversity of 3.78×10^10 unique sequences) was designed, and SUPR peptide mRNA display selections incorporating N-methyl alanine and proteinase-K screening were performed against recombinant LC3 (FIGS. 3A-E). For this, milligram quantities of His6-LC3A were bacterially expressed and purified, chemically biotinylated, and immobilized on streptavidin agarose resin for binding selection. Prior to each round of selection, mRNA-fusion libraries were translated using an in vitro rabbit reticulocyte lysate system incorporating amber-codon nonsense suppression with N-methyl alanine. Fusions were cyclized between the side chain of lysine and the N-terminus and briefly exposed to proteinase K to eliminate any sequences particularly susceptible to proteolysis. Binding selections were carried out by incubating mRNA display libraries with the immobilized His6-LC3A followed by elution in SDS and PCR amplification. After seven rounds of binding selection, the number of PCR cycles required to recover the enriched dsDNA after each binding selection had reduced by 40% (FIG. 3C). […] Over 90% of sequences in the library contained an N-methyl alanine residue at a conserved position adjacent to the fixed lysine residue. […] The majority of sequences contained variations of the canonical Autophagy-Interacting Motif observed in natural LC3 adaptor proteins (FIG. 4). […] Binding was confirmed by incubation of radiolabeled individual peptide fusions with immobilized LC3A (FIG. 3E; Table 2).

OVCAR8-ARHI cells = test: Western blotting of p62 and LC3I/LC3II in DIRAS3-induced cells; type: cell-based; details: peptide-treated, 72 h
Protocol: (§4) FIGS. 7A-B: SUPR4B in the DIRAS3 autophagy model.
(§5) FIGS. 8A-F: SUPR4B in the DIRAS3 autophagy model. […] Induction was performed using 1 g/mL DOX.

SKOv3-ARHI cells = test: as above; type: cell-based; details: peptide-treated, 72 h
Protocol: as §4, §5

LC3 = LC3 (Homo sapiens, UniProt Q9H492); test: Surface plasmon resonance binding to LC3
LC3A [2] = target: T1, LC3A; type: binding; details: peptide immobilized on solid phase
LC3B = LC3B (Homo sapiens, UniProt Q9GZQ8); type: binding; details: peptide immobilized on solid phase
GABARAP1 = type: binding; details: peptide immobilized on solid phase
GABARAP2 = GABARAP2 (Homo sapiens, UniProt P60520); type: binding; details: peptide immobilized on solid phase
GABARAP2, sequence (P60520 1-116 limits assumed): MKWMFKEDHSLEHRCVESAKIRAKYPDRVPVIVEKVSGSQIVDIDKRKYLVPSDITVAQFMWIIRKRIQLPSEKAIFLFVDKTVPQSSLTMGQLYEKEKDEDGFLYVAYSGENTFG

Atg8 = Atg8 (Saccharomyces cerevisiae, UniProt P38182); type: binding, yeast; details: peptide immobilized on solid phase
Atg8, sequence (P38182 1-116): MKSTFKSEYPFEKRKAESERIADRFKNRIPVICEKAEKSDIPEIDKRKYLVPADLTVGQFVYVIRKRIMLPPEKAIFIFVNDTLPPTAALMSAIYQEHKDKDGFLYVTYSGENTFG

LC3C = target: T2, LC3C (Homo sapiens, UniProt Q9BXW4); type: binding; details: peptide immobilized on solid phase
T2 construct: made in house
T2 sequence (Q9BXW4 1-126 limits assumed): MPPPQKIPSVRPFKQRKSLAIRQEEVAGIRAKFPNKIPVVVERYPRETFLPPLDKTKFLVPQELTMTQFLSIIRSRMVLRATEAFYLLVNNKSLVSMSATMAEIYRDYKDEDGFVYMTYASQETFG

ubiquitin = target: T3, ubiquitin (Homo sapiens, UniProt P62987); type: binding; details: peptide immobilized on solid phase
T3 construct: made in house

[3] = test system: Atg4B:LC3-AMC interaction; test: Atg4B cleavage of LC3-AMC (fluorescence); type: biochemical; details: LC3-AMC 120 nM, Atg4B 220 pM, increasing peptide concentrations
Description: FIG. 9A—In naturally occurring LIMs, the most common amino acid in the leading position of the motif is tryptophan. […] The reason for this may be that there exists only one codon for tryptophan, making it much less likely to appear in a selected peptide than another W-site recognizing amino acid. Modifying the lead position of SUPR 4B (SEQ ID NO: 1) from phenylalanine to tryptophan was hypothesized to produce a peptide that obtains improved binding affinity towards LC3 by more closely mimicking a naturally occurring LIM. Tryptophan may also confer increased hydrophobicity, which may enhance cell uptake. […] Atg19 is provided in SEQ ID NO: 10, Atg32 is provided in SEQ ID NO: 11, Atg3 is provided in SEQ ID NO: 12, Atg4B is provided in SEQ ID NO: 13, p62 is provided in SEQ ID NO: 14, NBR1 is provided in SEQ ID NO: 15. […] FIG. 9D—LC3-AMC (120 nM) was incubated with Atg4B (220 pM) in the presence of SUPR4B1W or a non-functional scrambled variant at the concentrations shown. Cleavage of LC3-AMC was measured by increased fluorescence (λEx=380 nm, […]).
Cleavage of LC3-AMC was measured by increased fluorescence.

Hey cell line [4] = test: MTT viability assay, cisplatin-resistant ovarian cancer cells; type: cell-based; details: cisplatin 10 μM + peptide, 48 hr
Description: (§6) FIGS. 12A-D: SUPR4B1W sensitizes ovarian cancer cells to cisplatin.

OVCAR8 cell line [5] = test: as above; type: cell-based; details: OVCAR8, cisplatin 10 μM + peptide, 48 hr
Description: as §6

Hey cell line [6] = test: Western blots of LC3-I/LC3-II and p62, cisplatin-resistant ovarian cancer cells; type: cell-based; details: 48 hr
Description: as §6

OVCAR8 cell line [7] = test: as above; type: cell-based; details: 48 hr
Description: as §6

[8] = test system: OVCAR8 orthotopic ovarian tumors; test: Orthotopic ovarian tumor model with carboplatin; type: in vivo; details: for final tumor mass, agent administered alone: SUPR peptide 10 mg/kg or carboplatin 25 mg/kg
Protocol: FIG. 13: SUPR4B1W sensitizes orthotopic ovarian tumors to carboplatin treatment. Mice were injected IP with 2 million OVCAR8 cells and treated three times per week for four weeks with vehicle control, SUPR peptide (10 mg/kg), carboplatin (25 mg/kg), or combination of SUPR peptide and carboplatin. At the end of four weeks, mice were sacrificed and tumors were dissected. […] For each vertical groups of data points, the top group represents Mouse Weight and the bottom group represents Tumor Weight.
In animal model experiments, mice were implanted with a cisplatin-resistant ovarian cancer cell line (OVCAR8) and treated with carboplatin, SUPR4B1W peptide, or carboplatin+SUPR4B1W peptide for 4 weeks. At the conclusion of the study, the mice were sacrificed and the mass of the intraperitoneal tumors measured.

[9] = mice, IP OVCAR8, three times per week for four weeks

Binding analysis of clones on immobilized LC3 (FIG. 3E) (LC3A [1]): selective LC3 binding
Compound: MYARSLRDZK (MYARSLRD[NMeA]K; bridge N-10) [Clone 25A]

Binding analysis of clones on immobilized LC3 (FIG. 3E) (LC3A [1]): selective LC3 binding
Compound: MFSHRVTLZK (MFSHRVTL[NMeA]K; bridge N-10) [Clone 25C]

% of radiolabeled peptide-fusions bound to immobilized LC3 (LC3A [1]): 4%
Compound: MLARSLRDZK (MLARSLRD[NMeA]K; bridge N-10) [Clone 25I]

Binding analysis of clones on immobilized LC3 (FIG. 3E) (LC3A [1]): selective LC3 binding
Compound: MNARSLRDZK (MNARSLRD[NMeA]K; bridge N-10) [Clone 25F]

% of radiolabeled peptide-fusions bound to immobilized LC3 (LC3A [1]): 3%
Compound: MYTRRVRLZK (MYTRRVRL[NMeA]K; bridge N-10) [Clone 25E]

Second part, the compound before the results:

Compound: CCN(CC)CCCC(C)Nc1ccnc2cc(Cl)ccc12 (stereo not drawn) [chloroquine, reference compound]
cell viability (MTT), DIRAS3-induced (autophagic) cells (OVCAR8 cells): did not result in a statistically significant increase in cell viability | cell viability (MTT), DIRAS3-induced (autophagic) cells (SKOv3 cells): did not result in a statistically significant increase in cell viability

Compound: MLSDIPVNDK [Clone 4E]
Binding analysis of clones on immobilized LC3 (FIG. 3E) (LC3A [1]): selective LC3 binding

Compound: CSCC[C@@H]1NC(=O)CCCC(=O)NCCCC[C@@H](C(=O)O)NC(=O)[C@H](C)N(C)C(=O)[C@H](C)NC(=O)[C@H]([C@@H](C)O)NC(=O)[C@H](C(C)C)NC(=O)[C@H](CCCNC(=N)N)NC(=O)[C@H](Cc2c[nH]cn2)NC(=O)[C@@H]2CCCN2C(=O)[C@H](Cc2ccccc2)NC1=O [Clone 4B, MFPHRVTAZK] (MFPHRVTA[NMeA]K-OH; linker N-10 via Glutaryl)
Binding analysis of clones on immobilized LC3 (FIG. 3E) (LC3A [1]): selective LC3 binding; also recorded: nearly quantitative binding | cell viability (MTT), DIRAS3-induced (autophagic) cells (OVCAR8 cells): significant rescue of viability | cell viability (MTT), non-DIRAS3 induced cells (OVCAR8 cells): no statistically significant effect on cell viability | cell viability (MTT), DIRAS3-induced (autophagic) cells (SKOv3 cells): significant rescue of viability | cell viability (MTT), non-DIRAS3 induced cells (SKOv3 cells): no statistically significant effect on cell viability | LC3I/LC3II ratio (OVCAR8-ARHI cells): decreased LC3I/LC3II ratio | p62 protein levels (OVCAR8-ARHI cells): increase in p62 protein levels | LC3I/LC3II ratio (SKOv3-ARHI cells): decreased LC3I/LC3II ratio | p62 protein levels (SKOv3-ARHI cells): increase in p62 protein levels

Compound: CSCC[C@@H]1NC(=O)CCCC(=O)NCCCC[C@@H](C(=O)O)NC(=O)[C@H](C)N(C)C(=O)[C@H](C)NC(=O)[C@H]([C@@H](C)O)NC(=O)[C@H](C(C)C)NC(=O)[C@H](CCCNC(=N)N)NC(=O)[C@H](Cc2c[nH]cn2)NC(=O)[C@@H]2CCCN2C(=O)[C@H](Cc2c[nH]c3ccccc23)NC1=O [SUPR 4B1W] (MWPHRVTA[NMeA]K-OH; linker N-10 via Glutaryl)
improvement of apparent dissociation constant relative to SUPR4B (LC3): ~10 fold | binding to LC3A (LC3A [2]): bound tightly | binding to LC3B (LC3B): bound tightly | binding to GABARAP1 (GABARAP1): moderate off-target binding | binding to GABARAP2 (GABARAP2): moderate off-target binding | binding to yeast LC3 ortholog Atg8 (Atg8): moderate off-target binding | binding to LC3C (LC3C): Almost no binding | binding to ubiquitin (ubiquitin): Almost no binding | Cleavage of LC3-AMC by Atg4B (fluorescent signal) [3]: significantly decreased fluorescent signal | cell viability (MTT), DIRAS3-induced (autophagic) cells (OVCAR8 cells): enhanced viability rescue phenotype | cell viability (MTT), DIRAS3-induced (autophagic) cells (OVCAR8 cells; listed as SUPR4B1W): almost completely restores cell viability | cell viability (MTT), non-DIRAS3 induced cells (OVCAR8 cells): no change in cell viability | cell viability (MTT), DIRAS3-induced (autophagic) cells (SKOv3 cells): enhanced viability rescue phenotype | cell viability (MTT), DIRAS3-induced (autophagic) cells (SKOv3 cells; listed as SUPR4B1W): almost completely restores cell viability | cell viability (MTT), non-DIRAS3 induced cells (SKOv3 cells): no change in cell viability | LC3I/LC3II ratio (SKOv3-ARHI cells): decreased LC3I/LC3II ratio | p62 protein levels (SKOv3-ARHI cells): accumulation of p62 | cell viability (MTT) in combination with cisplatin (Hey cell line [4]): re-sensitized the resistant cell lines to cisplatin | cell viability (MTT) in combination with cisplatin (OVCAR8 cell line [5]): re-sensitized the resistant cell lines to cisplatin | p62 accumulation in combination with cisplatin (Hey cell line [6]; cisplatin 10 μM + peptide 50 µM): triggered accumulation of p62 | LC3-I/LC3-II ratios in combination with cisplatin (Hey cell line [6]; cisplatin 10 μM + peptide): dramatically perturbed LC3-I/LC3-II ratios | p62 accumulation in combination with cisplatin (OVCAR8 cell line [7]; OVCAR8, cisplatin 10 μM + peptide 50 µM): triggered accumulation of p62 | LC3-I/LC3-II ratios in combination with cisplatin (OVCAR8 cell line [7]; OVCAR8, cisplatin 10 μM + peptide): dramatically perturbed LC3-I/LC3-II ratios | number of mice with no detectable tumors, peptide combined with carboplatin ([8]; IP OVCAR8, four weeks, peptide 10 mg/kg + carboplatin 25 mg/kg): 6 mice | final tumor mass, agent administered alone [8, 9]: no change in tumor volume | final tumor mass, peptide combined with carboplatin ([8]; mice, IP OVCAR8, three times per week for four weeks, peptide 10 mg/kg + carboplatin 25 mg/kg): almost completely tumor-free; also recorded: significantly reduced tumor mass

Compound: MSLHRVTVZK (MSLHRVTV[NMeA]K; bridge N-10) [Clone 4C]
% of radiolabeled peptide-fusions bound to immobilized LC3 (LC3A [1]): 1%

Compound: N.N.O=C([O-])C1(C(=O)[O-])CCC1.[Pt+2] [carboplatin, reference compound]
final tumor mass, agent administered alone [8, 9]: expected reduction in tumor volume
